Earlier results in patent EP2742940A1, “Salts of aza-bicyclo-di-aryl ethers for adminstration once daily, twice daily or thrice daily” (IP Gesellschaft für Management mbH, priority 2012, dated 2014).

Parameters: Initial water content / Hygroscopy @ 85%RH: unit not given here
Conditions: for Initial water content: Example 7 comparison of salt forms; for moisture gain: at 85% RH

SMILES	Hygroscopy @ 85%RH	Initial water content	moisture gain
Cc1ccc(-c2ccc(O[C@H]3CN4CCC3CC4)cn2)cc1.O=C(O)CC(=O)O [Malonate, malonate salt of (R)-3-(6-(4-methylphenyl)-pyridin-3-yloxy)-1-aza-bicyclo[2.2.2]octane]	1.3	∼0	1.3%
Cc1ccc(-c2ccc(O[C@H]3CN4CCC3CC4)cn2)cc1.O=P(O)(O)O [Phosphate, Form A, phosphate salt of (R)-3-(6-(4-methylphenyl)-pyridin-3-yloxy)-1-aza-bicyclo[2.2.2]octane]	0.2	∼0.5	0.2%
Cc1ccc(-c2ccc(O[C@H]3CN4CCC3CC4)cn2)cc1.O=C(O)CCC(=O)O [Succinate, succinate salt of (R)-3-(6-(4-methylphenyl)-pyridin-3-yloxy)-1-aza-bicyclo[2.2.2]octane]	0.3	∼4.5	0.3%
Cc1ccc(-c2ccc(O[C@H]3CN4CCC3CC4)cn2)cc1.O=C(O)/C=C\C(=O)O [Maleate, maleate salt of (R)-3-(6-(4-methylphenyl)-pyridin-3-yloxy)-1-aza-bicyclo[2.2.2]octane]	0.3	<0.1	0.3%
Cc1ccc(-c2ccc(O[C@H]3CN4CCC3CC4)cn2)cc1.Cl [Hydrochloride, Form A, chloride salt (hydrochloride) of (R)-3-(6-(4-methylphenyl)-pyridin-3-yloxy)-1-aza-bicyclo[2.2.2]octane]	∼5	∼5	about 5%
